Assay in all cases: NCI tumour cell line growth inhibition, 48 h
Experiment [1] deals with COLO 205 colon.
For experiment [2], the system named is SF-268 CNS.
Experiment [3] deals with HL-60(TB) leukemia.
Experiment [4] relates to SF-295 CNS.
In experiment [5] the test system is IGROV1 ovarian.
The test system of experiment [6] is RXF 393 renal.
Experiment [7] deals with MALME-3M melanoma.
Experiment [8] deals with UO-31 renal.
The subject of experiment [9] is M14 melanoma.
Experiment [10] deals with SNB-75 CNS.

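1) Cells in 96-well plates. 2) Compound, 48 h, 5 concentrations. 3) Linear interpolation between surrounding doses. 4) Unreached endpoint = highest concentration. Here, GI50 denotes the concentration required for 50% inhibition of growth. TGI marks complete inhibition of growth.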

Regarding `O=C1CCCC/C1=C/C=C/c1ccccc1`, the TGI was > 100 µM in experiment [1]; > 100 µM in experiment [2]; 62.8 µM in experiment [3]; > 100 µM in [4]; > 100 µM in experiment [5]; > 100 µM in experiment [6]. Further, the TGI in experiment [7], in [8], in [9] and in [10] was > 100 µM each time.
For `COC(=O)CCC(=O)c1c(C)[nH]c(/C=C2\N=C(c3ccc[nH]3)C=C2OC)c1C`, the GI50 is 1.04 µM in experiment [1]; 1.03 µM in experiment [2]; 0.602 µM in experiment [3]; 1.62 µM in experiment [4]; 0.365 µM in [5]; 1.46 µM in experiment [6]. Moreover, the GI50 in [7] was 1.49 µM; in [8], 0.279 µM; in [9] it was 0.431 µM; in [10], 0.971 µM. Besides, the TGI was 3.29 µM in experiment [1]; 3.1 µM in experiment [2]; 2.83 µM in experiment [3]; 4.08 µM in experiment [4]; 1.6 µM in [5]; 4.03 µM in experiment [6]. The TGI was determined as 3.47 µM in experiment [7], 0.866 µM in experiment [8], 1.91 µM in [9] and 3.51 µM in experiment [10].
`CN(C)CCn1c2ccccc2c2nc3cc4ccccc4cc3nc21`: the TGI in [1] came out at 12.3 µM; in experiment [2] it was 6.26 µM; in [3] it was 11.1 µM; in experiment [4], 17 µM; in experiment [5], 10.7 µM; in experiment [6], 24.4 µM. Further, the TGI in [7] came to 25.2 µM; in [8] it was 18.1 µM; in experiment [9], 16.4 µM.
Take `Cc1ccc(C)c(NC(=O)c2cc(-c3ccc([N+](=O)[O-])cc3)nc(N)n2)c1`: the TGI in experiment [1], in experiment [2], in experiment [3], in [4], in experiment [5] and in [6] was > 100 µM each time. Besides, the TGI in [7], in experiment [8], in experiment [9] and in experiment [10] was > 100 µM throughout.
Take `CCCN(CCC)c1ccc(CO)c(C)c1`: the GI50 in [1] was 19.4 µM; in [2], 63.7 µM; in [3] it was 21.6 µM; in experiment [4] it was > 100 µM; in experiment [5], 57 µM; in experiment [6], 22.2 µM. Moreover, the GI50 in experiment [7] was 11.3 µM; in [8], > 100 µM; in experiment [9], > 100 µM; in [10], 68.2 µM. Also, the TGI is 68.8 µM in experiment [1]; > 100 µM in [2]; 48.7 µM in experiment [3]; > 100 µM in experiment [4]; > 100 µM in [5]; > 100 µM in experiment [6]. For the same compound, the TGI was 94.4 µM in experiment [7], > 100 µM in [8], > 100 µM in experiment [9] and > 100 µM in [10].
Take `O=c1ccccc2cccc(O)c12`: the TGI in experiment [1], in [3], in [4], in [5], in experiment [6] and in experiment [9] was > 100 µM in each case. In experiment [10], the TGI is > 100 µM.
With `C(=C\c1csnn1)/c1cccnc1`, the TGI in experiment [1], in experiment [2], in experiment [3], in experiment [4], in [6] and in experiment [7] was > 100 µM each time. In addition, the TGI in [8], in experiment [9] and in experiment [10] was > 100 µM throughout.
For the compound `CCOC(=O)/N=C(\N)SCc1ccccc1`, the TGI in [2], in experiment [3], in experiment [4], in experiment [5], in [6] and in experiment [7] was > 100 µM each time. Also, the TGI in [8], in [9] and in [10] was > 100 µM in each case.
For `COc1ccc(C(c2ccc(C(C)C)cc(=O)c2O)c2c(O)cc3oc(-c4ccccc4)cc(=O)c3c2O)cc1` (stereo not given), the TGI in experiment [1] amounted to 25.9 µM; in [3], 28.8 µM; in experiment [4], 16.7 µM; in [5], 24.4 µM; in [6] it was 34.2 µM; in experiment [9], 22.2 µM. The TGI in [10] was > 100 µM.
`CN1CCN(c2ccc3c4c(cccc24)C(=O)N(CCN2CCN(CCCN4CCN(CCN5C(=O)c6cccc7c(N8CCN(C)CC8)ccc(c67)C5=O)CC4)CC2)C3=O)CC1`: the GI50 in experiment [1] was 5.6 µM; in [2] it was 4.57 µM; in [3], 1.49 µM; in experiment [4], 5.75 µM; in experiment [6] it was 5.4 µM; in [7], 8.36 µM. The GI50 is 7.54 µM in experiment [9] and 7 µM in experiment [10]. Besides, the TGI in experiment [1] came to 21.8 µM; in experiment [2] it was 47.5 µM; in experiment [3], 7.15 µM; in experiment [4], 13.7 µM; in experiment [6] it was 12 µM; in [7], 19.8 µM. Also, the TGI in experiment [9] was 14.2 µM; in experiment [10], 14.1 µM.
As to `COc1ccc(C(O)CNC(=O)c2ccccc2)cc1` (stereo not given), the TGI in experiment [1], in experiment [2], in [3], in [4], in experiment [5] and in [6] was > 100 µM each time. Further, the TGI in experiment [7], in [9] and in [10] was > 100 µM throughout.
With `COc1cc(CSc2nc3ccc(C)cc3c(=O)n2Cc2ccccc2)cc(OC)c1OC`, the GI50 is 1.05 µM in experiment [1]; 5.01 µM in experiment [2]; 3.3 µM in experiment [3]; 3.47 µM in experiment [5]; 2.29 µM in experiment [6]; 3.09 µM in experiment [7]. The GI50 is 3.05 µM in [8], 3.08 µM in experiment [9] and 0.804 µM in experiment [10]. The TGI in [1] was 3.13 µM; in [2] it was > 100 µM; in experiment [3], > 100 µM; in experiment [5] it was > 100 µM; in experiment [6] it was 9.75 µM; in experiment [7] it was 34.3 µM. Moreover, the results for the TGI in experiment [8], in experiment [9] and in experiment [10] were > 100 µM, > 100 µM and 4.21 µM, respectively.
`CCCCCCCCCCCC(=O)OCC1OC(n2cc(F)c(=O)[nH]c2=O)C(N)C(OC(=O)CCCCCCCCCCC)C1O` (stereo not given): the TGI in experiment [1], in experiment [2], in experiment [3], in experiment [4], in experiment [6] and in [7] was > 100 µM each time. The TGI in [8], in [9] and in [10] was > 100 µM throughout.
As for `COc1ccc2[nH]cc(-c3nc(-c4cn(C)c5ccncc45)cs3)c2c1`, the GI50 in [2] was 1.91 µM; in experiment [3] it was 1.9 µM; in experiment [4], 12.3 µM; in experiment [5], 1.93 µM; in [6] it was 1.83 µM; in experiment [7] it was 2.11 µM. The GI50 in [8] is 1.8 µM; in experiment [9], 1.75 µM; in [10] it was 15.3 µM. Further, the TGI was determined as 3.61 µM in experiment [2]; 4.12 µM in experiment [3]; 25.7 µM in experiment [4]; 3.54 µM in experiment [5]; 3.34 µM in experiment [6]; 3.65 µM in experiment [7]. The TGI came out at 3.36 µM in experiment [8], 3.24 µM in experiment [9] and 29 µM in [10].
As for `CC(=O)OC12c3ccccc3C1CCCCCC21OCCCO1` (stereo not given), the TGI in [1], in experiment [2], in experiment [3], in [4], in [5] and in [6] was > 100 µM in each case. Also, the TGI in experiment [8], in [9] and in [10] was > 100 µM throughout.
Regarding `CCCCC(=O)N/N=C/c1cc(I)cc(I)c1O`, the GI50 in experiment [1] was 3.59 µM; in [2], 2.15 µM; in experiment [3] it was 2.49 µM; in experiment [4], 2.45 µM; in experiment [5], 2.32 µM; in [6], 5.39 µM. In addition, the GI50 was 1.28 µM in experiment [8], 2.7 µM in experiment [9] and 6.03 µM in experiment [10]. In addition, the TGI in [1] worked out at 26.9 µM; in experiment [2], 21.6 µM; in experiment [3] it was 7.27 µM; in [4], 12.9 µM; in experiment [5], 17.2 µM; in [6], 27.2 µM. Moreover, the TGI in [8] stood at 11.1 µM; in experiment [9], 14.8 µM; in experiment [10], 26.5 µM.
Consider `O=C(OCCOCBr)c1ccccc1`, for which the TGI in experiment [1], in experiment [2], in [3], in experiment [4], in experiment [5] and in experiment [7] was > 100 µM throughout. The TGI in [8], in experiment [9] and in experiment [10] was > 100 µM throughout.
`O=C(CCC(=O)Nc1ccc(Cl)cc1)CC(=O)c1ccc(F)cc1`: the TGI in experiment [1], in [2], in [3], in experiment [4], in experiment [5] and in [7] was > 100 µM each time. For the same compound, the TGI in experiment [8], in experiment [9] and in experiment [10] was > 100 µM in each case.
As for `O=[N+]([O-])c1ccccc1N=Nc1c(O)[nH]c2ccccc12`, the TGI is > 100 µM in [1]; > 100 µM in experiment [2]; > 100 µM in [3]; > 100 µM in experiment [4]; > 39.9 µM in experiment [5]; > 74.9 µM in experiment [6]. In addition, the TGI was > 52.8 µM in [8], > 100 µM in experiment [9] and 68.8 µM in experiment [10].
On to `COc1cccc(/C=N\Nc2ccc([N+](=O)[O-])cn2)c1O`, for which the GI50 in experiment [1] is 27.8 µM; in experiment [2], 2.58 µM; in experiment [3], 3.13 µM; in experiment [5], 1.91 µM; in experiment [6], 2.79 µM; in [7] it was 4.11 µM. Besides, the values for the GI50 in experiment [8], in experiment [9] and in [10] were 1.74 µM, 3.34 µM and 8.78 µM, respectively. In addition, the TGI in experiment [1] is > 100 µM; in [2], 23.8 µM; in experiment [3] it was 17.7 µM; in experiment [5] it was 13.5 µM; in [6], 12.7 µM; in experiment [7] it was 36 µM. The TGI in [8] was 7.24 µM; in experiment [9], 25.9 µM; in experiment [10] it was 57.2 µM.
As for `N=C(c1ccccc1)N(O)C1CCCCC1`, the TGI in experiment [1], in [2], in [3], in experiment [4], in experiment [6] and in [7] was > 100 µM each time. Also, the TGI in experiment [8], in [9] and in experiment [10] was > 100 µM in each case.
In the case of `COc1ccc(-c2n[nH]nc2-c2csc3ccccc23)cc1OC`, the GI50 was 2.82 µM in experiment [1]; 3.69 µM in [2]; 1.7 µM in experiment [3]; 2.33 µM in experiment [4]; 4.21 µM in experiment [5]; 2.11 µM in experiment [6]. In addition, the GI50 in experiment [7] was 13.3 µM; in [8], 2.78 µM; in experiment [9], 1.95 µM. The TGI in experiment [1] was 11.7 µM; in [2] it was 41.8 µM; in experiment [3] it was 25.1 µM; in experiment [4], 11.7 µM; in [5], > 100 µM; in experiment [6], 6.71 µM. The TGI in [7] came to 62.1 µM; in experiment [8], 20.8 µM; in [9], 15.6 µM.

The record behind these values is PubChem BioAssay (NCI).
